Results taken from US20080090756A1, “Somatostatin agonists” (The Administrators of the Tulane Educational Fund, priority 2001, published 2008).
Bridge positions count the residues as written; N and C are the ends. Square brackets hold non-standard residues; d marks the D form. Peptide text beside a SMILES is read from it. dNMeW = CN[C@H](Cc1c[nH]c2ccccc12)C(=O)O; NMeY = CN[C@@H](Cc1ccc(O)cc1)C(=O)O; NMeF = CN[C@@H](Cc1ccccc1)C(=O)O; NMeT = CN[C@H](C(=O)O)[C@@H](C)O; NMeK = CN[C@@H](CCCCN)C(=O)O; NMeC = CN[C@@H](CS)C(=O)O

Legend:
hSSTR-2 = target: T1, hSSTR-2 (Homo sapiens, UniProt P30874); test: Radioligand binding assay, cloned human somatostatin receptor type 2; details: CHO-K1 cell membranes, displacement of [125I]MK-678; mean ± SEM, single values = one experiment; read-out: Kd ± SEM hsst2
T1 construct: each containing the entire coding region of the full-length receptors; expressed in transfected cells
T1 sequence (P30874 whole entry): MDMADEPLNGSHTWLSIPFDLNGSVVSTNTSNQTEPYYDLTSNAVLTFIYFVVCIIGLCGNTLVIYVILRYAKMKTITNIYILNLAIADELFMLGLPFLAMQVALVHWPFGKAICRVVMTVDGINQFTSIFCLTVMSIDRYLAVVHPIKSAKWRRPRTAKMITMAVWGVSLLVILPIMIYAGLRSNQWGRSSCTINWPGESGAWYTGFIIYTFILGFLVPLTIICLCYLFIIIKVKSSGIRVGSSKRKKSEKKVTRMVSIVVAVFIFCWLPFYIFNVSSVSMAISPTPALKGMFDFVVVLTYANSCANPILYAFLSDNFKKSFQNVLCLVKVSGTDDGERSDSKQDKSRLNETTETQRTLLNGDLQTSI
Source text: (§1) Functional Expression of the Cloned Human Somatostatin Receptors. The genomic clones containing the human somatostatin receptors (hSSTR-1 to hSSTR-5) (Yamada, Y., et al. al., Proc. Natl. Acad. Sci. USA. 1992, 89, 251-255; Yasuda, K., et al., J. Biol. Chem. 1992, 267, 20422-20428; Yamada, Y., et al., Mol. Pharmacol. 1992, 42, 2136-2142; Rohrer, L., et al., Proc. Natl. Acad. Sci. USA. 1993, 90, 4196-4200.) were kindly provided by Dr. Graeme I. Bell of the University of Chicago. The hSSTR-1, hSSTR-2, hSSTR-3, hSSTR-4 and hSSTR-5 cDNAs were isolated as a 1.5-kb PstI-XmnI fragment, 1.7-kb BamHI-HindIII fragment, 2.0-kb NcoI-HindIII fragment, 1.4-kb NheI-NdeI fragment, and a 1.2-kb HindIII-XbaI fragment, respectively, each containing the entire coding region of the full-length receptors. These fragments were independently subcloned into the corresponding restriction endonuclease sites in the mammalian expression vector pCMV5, downstream from the human cytomegalovirus (CMV) promoter, to produce the expression plasmids pCMV5/hSSTR-1, pCMV5/hSSTR-2, pCMV5/hSSTR-3, pCMV5/hSSTR-4 and pCMV5/hSSTR-5. For transfection into CHO-K1 cells, a plasmid, pRSV-neo (American Type Culture Collection, Rockville, Md.), carrying the neomycin mammalian cell selectable marker was added.
(§2) Receptor Expression and Transfection. Transfections were performed by the calcium phosphate method. CHO-K1 cells were maintained in α-minimum essential medium (α-MEM; Gibco) supplemented with 10% fetal calf serum and transfected with each of the expression plasmids using calcium phosphate precipitation. Clones that had inherited the expression plasmid were selected in α-MEM supplemented with 500 μg mL^−1 of geneticin (G418; Gibco). Independent CHO-K1 clones were picked by glass-ring cloning and expanded in culture in the selective media. Membranes were prepared from the isolated clones and hSSTR expression was initially assessed for binding with [^125I]Tyr^11-SRIF and [^125I]MK-678 (for SSTR-2).
(§3) Radioligand Binding Assays. Cell membranes of the 5 cells types were obtained from homogenates (Polytron setting 6, 15 sec) of the corresponding CHO-K1 cells, in ice-cold Tris-HCl (50 mM) and centrifuged (39000 g, 10 min×2), with an intermediate resuspension in fresh buffer. The final pellets were resuspended in Tris-HCl (10 mM) for assay. Aliquots of the membranes were incubated (30 min at 37° C.) with 0.05 nM [^125I]Tyr^11-SRIF (types 1, 3, 4, 5) or [^125I]MK-678 (type 2) in […] (pH 7.4) containing BSA (10 mg mL^−1); MgCl2 (5 mM), Trasylol (200 kIU mL^−1), bacitracin (0.02 mg mL^−1), and phenylmethanesulfonyl fluoride (0.02 mg mL^−1). The final assay volume was 0.3 mL and incubations were terminated by rapid filtration through GF/C filters pre-soaked in 0.3% poly(ethylenimine) using a Brandel rapid filtration module. Each tube and filter was then washed with aliquots of cold buffer (3×5 mL).
(§4) Specific binding is defined as the total radioligand bound minus that bound in the presence of 1.0 μM SRIF. The following total radioligand binding and non-specific binding (nsb) values were typically obtained with these assay systems: hSSTR-1, 7000 cpm total versus 3500 cpm nsb; hSSTR-2, 9000 cpm total versus 1000 cpm nsb; hSSTR-3, 8000 cpm total versus 1000 cpm nsb; hSSTR-4, 6000 cpm total versus 3500 cpm nsb; and hSSTR-5, 7500 cpm total versus 3500 cpm nsb. The binding affinities are expressed as Ki values ±SEM (nM) for each of the five receptor subtypes. Ki values derived for representative compounds of the instant invention are detailed in Table 2.
(§5) The binding affinities (Kd, nM) of all SRIF analogues were determined using their concentration-dependent displacement of ^125I-radiolabeled peptide ligands from membranes isolated from CHO cells transfected with the corresponding human somatostatin receptor.

hSSTR-4 = target: T2, hSSTR-4 (Homo sapiens, UniProt P31391); test: Radioligand binding assay, cloned human somatostatin receptor type 4; details: CHO-K1 cell membranes, displacement of [125I]Tyr11-SRIF; mean ± SEM, single values = one experiment; read-out: Kd ± SEM hsst4
T2 construct: each containing the entire coding region of the full-length receptors; expressed in transfected cells
T2 sequence (P31391 whole entry): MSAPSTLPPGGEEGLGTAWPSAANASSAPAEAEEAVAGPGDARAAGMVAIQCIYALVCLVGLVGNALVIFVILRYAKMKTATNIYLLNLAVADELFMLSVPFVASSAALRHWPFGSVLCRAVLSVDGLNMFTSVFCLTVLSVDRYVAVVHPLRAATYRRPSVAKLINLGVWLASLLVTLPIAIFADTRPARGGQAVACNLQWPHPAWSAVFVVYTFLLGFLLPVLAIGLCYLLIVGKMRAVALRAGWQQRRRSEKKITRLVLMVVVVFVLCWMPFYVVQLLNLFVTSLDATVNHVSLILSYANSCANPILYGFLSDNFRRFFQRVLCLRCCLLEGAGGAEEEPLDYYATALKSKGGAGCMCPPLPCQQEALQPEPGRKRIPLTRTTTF
Source text: as §1, §2, §3, §4, §5

hSSTR-1 = target: T3, hSSTR-1 (Homo sapiens, UniProt P30872); test: Radioligand binding assay, cloned human somatostatin receptor type 1; details: CHO-K1 cell membranes, displacement of [125I]Tyr11-SRIF; mean ± SEM, single values = one experiment; read-out: Kd ± SEM hsst1
T3 construct: each containing the entire coding region of the full-length receptors; expressed in transfected cells
T3 sequence (P30872 whole entry): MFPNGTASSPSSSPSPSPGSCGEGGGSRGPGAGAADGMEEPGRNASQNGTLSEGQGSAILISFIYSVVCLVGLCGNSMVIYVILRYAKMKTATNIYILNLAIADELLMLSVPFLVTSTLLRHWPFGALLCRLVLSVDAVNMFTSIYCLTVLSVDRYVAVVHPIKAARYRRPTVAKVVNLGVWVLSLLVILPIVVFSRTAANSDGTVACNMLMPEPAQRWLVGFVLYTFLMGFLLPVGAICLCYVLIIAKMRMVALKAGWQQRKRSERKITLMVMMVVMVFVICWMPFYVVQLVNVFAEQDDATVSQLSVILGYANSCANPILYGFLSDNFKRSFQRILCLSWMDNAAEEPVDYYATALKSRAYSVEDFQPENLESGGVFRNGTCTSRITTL
Source text: as §1, §2, §3, §4, §5

hSSTR-3 = target: T4, hSSTR-3 (Homo sapiens, UniProt P32745); test: Radioligand binding assay, cloned human somatostatin receptor type 3; details: CHO-K1 cell membranes, displacement of [125I]Tyr11-SRIF; mean ± SEM, single values = one experiment; read-out: Kd ± SEM hsst3
T4 construct: each containing the entire coding region of the full-length receptors; expressed in transfected cells
T4 sequence (P32745 whole entry): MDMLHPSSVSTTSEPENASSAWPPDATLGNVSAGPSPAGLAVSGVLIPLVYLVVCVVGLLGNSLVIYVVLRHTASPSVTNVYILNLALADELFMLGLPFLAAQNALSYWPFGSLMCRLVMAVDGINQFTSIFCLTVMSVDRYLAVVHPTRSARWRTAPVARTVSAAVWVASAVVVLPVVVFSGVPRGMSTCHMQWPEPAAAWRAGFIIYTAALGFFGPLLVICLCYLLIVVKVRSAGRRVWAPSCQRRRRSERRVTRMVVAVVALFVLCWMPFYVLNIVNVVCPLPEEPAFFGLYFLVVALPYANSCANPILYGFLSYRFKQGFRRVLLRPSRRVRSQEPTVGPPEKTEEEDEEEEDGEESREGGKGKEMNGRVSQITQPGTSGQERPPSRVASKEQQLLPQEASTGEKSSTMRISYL
Source text: as §1, §2, §3, §4, §5

hSSTR-5 = target: T5, hSSTR-5 (Homo sapiens, UniProt P35346); test: Radioligand binding assay, cloned human somatostatin receptor type 5; details: CHO-K1 cell membranes, displacement of [125I]Tyr11-SRIF; mean ± SEM, single values = one experiment; read-out: Kd ± SEM hsst5
T5 construct: each containing the entire coding region of the full-length receptors; expressed in transfected cells
T5 sequence (P35346 whole entry): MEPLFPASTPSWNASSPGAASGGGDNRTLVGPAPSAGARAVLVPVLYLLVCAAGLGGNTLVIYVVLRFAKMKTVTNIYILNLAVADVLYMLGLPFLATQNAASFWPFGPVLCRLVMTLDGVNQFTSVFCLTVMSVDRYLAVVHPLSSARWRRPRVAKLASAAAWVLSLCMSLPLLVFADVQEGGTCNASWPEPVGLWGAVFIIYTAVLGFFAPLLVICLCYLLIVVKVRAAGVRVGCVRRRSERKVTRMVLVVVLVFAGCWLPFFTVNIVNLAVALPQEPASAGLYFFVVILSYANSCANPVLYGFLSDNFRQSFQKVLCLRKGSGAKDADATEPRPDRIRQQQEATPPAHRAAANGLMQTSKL
Source text: as §1, §2, §3, §4, §5

Kd (hSSTR-2) [nM]	Kd (hSSTR-4) [nM]	Compound	Kd (hSSTR-1) [nM]	Kd (hSSTR-3) [nM]	Kd (hSSTR-5) [nM]
1.84 ± 0.21	> 1000	C[C@@H](O)[C@H](NC(=O)[C@@H]1CSSC[C@H](NC(=O)[C@H](N)Cc2ccccc2)C(=O)N[C@@H](Cc2ccccc2)C(=O)N[C@H](Cc2c[nH]c3ccccc23)C(=O)N(C)[C@@H](CCCCN)C(=O)N[C@@H]([C@@H](C)O)C(=O)N1)C(N)=O [Example 5, DPhe-cyclo(Cys-Phe-DTrp-NMeLys-Thr-Cys)-Thr-NH2]	–	–	–
14.8 ± 1.53	182	C[C@@H](O)[C@@H]1NC(=O)[C@H](CCCCN)NC(=O)[C@@H](Cc2c[nH]c3ccccc23)NC(=O)[C@H](Cc2ccccc2)NC(=O)[C@@H](NC(=O)[C@H](N)Cc2ccccc2)CSSC[C@@H](C(=O)N(C)[C@H](C(N)=O)[C@@H](C)O)NC1=O [Example 8, DPhe-cyclo(Cys-Phe-DTrp-Lys-Thr-Cys)-NMeThr-NH2]	> 1000	124 ± 11.7	–
0.15 ± 0.08	> 1000	C[C@@H](O)[C@H](NC(=O)[C@@H]1CSSC[C@H](NC(=O)[C@H](N)Cc2ccccc2)C(=O)N[C@@H](Cc2ccccc2)C(=O)N[C@H](Cc2c[nH]c3ccccc23)C(=O)N[C@@H](CCCCN)C(=O)N[C@@H]([C@@H](C)O)C(=O)N1)C(N)=O [Example 9, DPhe-cyclo(Cys-Phe-DTrp-Lys-Thr-Cys)-Thr-NH2]	761	11.8 ± 0.9	–
13.2 ± 3.85	> 1000	C[C@@H](O)[C@H](NC(=O)[C@@H]1CSSC[C@H](NC(=O)[C@H](N)Cc2ccccc2)C(=O)N(C)[C@@H](Cc2ccccc2)C(=O)N[C@H](Cc2c[nH]c3ccccc23)C(=O)N[C@@H](CCCCN)C(=O)N[C@@H]([C@@H](C)O)C(=O)N1)C(N)=O [Example 3, DPhe-cyclo(Cys-NMePhe-DTrp-Lys-Thr-Cys)-Thr-NH2]	> 1000	830 ± 86	–
–	–	C[C@@H](O)[C@H](NC(=O)[C@@H]1CSSC[C@H](NC(=O)[C@@H](N)Cc2ccc(O)cc2)C(=O)N(C)[C@@H](Cc2ccccc2)C(=O)N[C@H](Cc2c[nH]c3ccccc23)C(=O)N[C@@H](CCCCN)C(=O)N[C@@H]([C@@H](C)O)C(=O)N1)C(N)=O [Example 12, Tyr-cyclo(Cys-NMePhe-DTrp-Lys-Thr-Cys)-Thr-NH2] (H-YC[NMeF][dW]KTCT-NH2; disulfide 2-7; N-terminus assumed)	653 ± 245	94.2 ± 16.7	–
1.03 ± 0.26	–	CN[C@H](Cc1ccccc1)C(=O)N[C@H]1CSSC[C@@H](C(=O)N[C@H](C(N)=O)[C@@H](C)O)NC(=O)[C@H]([C@@H](C)O)NC(=O)[C@H](CCCCN)NC(=O)[C@@H](Cc2c[nH]c3ccccc23)NC(=O)[C@H](Cc2ccccc2)NC1=O [Example 1, NMeDPhe-cyclo(Cys-Phe-DTrp-Lys-Thr-Cys)-Thr-NH2]	316 ± 11	17.9 ± 2.5	4.89 ± 1.4
9.74 ± 1.87	–	CN[C@@H](Cc1ccc(O)cc1)C(=O)N[C@H]1CSSC[C@@H](C(=O)N[C@H](C(N)=O)[C@@H](C)O)NC(=O)[C@H]([C@@H](C)O)NC(=O)[C@H](CCCCN)NC(=O)[C@@H](Cc2c[nH]c3ccccc23)NC(=O)[C@H](Cc2ccccc2)NC1=O [Example 10, NMeTyr-cyclo(Cys-Phe-DTrp-Lys-Thr-Cys)-Thr-NH2] (H-[NMeY]CF[dW]KTCT-NH2; disulfide 2-7; N-terminus assumed)	811 ± 188	–	–

Compound	Kd (hSSTR-2) [nM]	Kd (hSSTR-4) [nM]	Kd (hSSTR-1) [nM]	Kd (hSSTR-3) [nM]	Kd (hSSTR-5) [nM]
C[C@@H](O)[C@H](NC(=O)[C@@H]1CSSC[C@H](NC(=O)[C@@H](N)Cc2ccc(O)cc2)C(=O)N[C@@H](Cc2ccccc2)C(=O)N(C)[C@H](Cc2c[nH]c3ccccc23)C(=O)N[C@@H](CCCCN)C(=O)N[C@@H]([C@@H](C)O)C(=O)N1)C(N)=O [Example 13, Tyr-cyclo(Cys-Phe-NMeDTrp-Lys-Thr-Cys)-Thr-NH2] (H-YCF[dNMeW]KTCT-NH2; disulfide 2-7; N-terminus assumed)	120 ± 22.2	–	1000	–	–
C[C@@H](O)[C@H](NC(=O)[C@@H]1CSSC[C@H](N(C)C(=O)[C@@H](N)Cc2ccc(O)cc2)C(=O)N[C@@H](Cc2ccccc2)C(=O)N[C@H](Cc2c[nH]c3ccccc23)C(=O)N[C@@H](CCCCN)C(=O)N[C@@H]([C@@H](C)O)C(=O)N1)C(N)=O [Example 11, Tyr-cyclo(NMeCys-Phe-DTrp-Lys-Thr-Cys)-Thr-NH2] (H-Y[NMeC]F[dW]KTCT-NH2; disulfide 2-7; N-terminus assumed)	8.96 ± 1.66	–	–	2.73 ± 2.43	114
C[C@@H](O)[C@H](NC(=O)[C@@H]1CSSC[C@H](NC(=O)[C@@H](N)Cc2ccc(O)cc2)C(=O)N[C@@H](Cc2ccccc2)C(=O)N[C@H](Cc2c[nH]c3ccccc23)C(=O)N(C)[C@@H](CCCCN)C(=O)N[C@@H]([C@@H](C)O)C(=O)N1)C(N)=O [Example 14, Tyr-cyclo(Cys-Phe-DTrp-NMeLys-Thr-Cys)-Thr-NH2] (H-YCF[dW][NMeK]TCT-NH2; disulfide 2-7; N-terminus assumed)	14.2 ± 3.12	–	956 ± 43	51 ± 6.93	–
C[C@@H](O)[C@H](NC(=O)[C@@H]1CSSC[C@H](NC(=O)[C@@H](N)Cc2ccc(O)cc2)C(=O)N[C@@H](Cc2ccccc2)C(=O)N[C@H](Cc2c[nH]c3ccccc23)C(=O)N[C@@H](CCCCN)C(=O)N[C@@H]([C@@H](C)O)C(=O)N1C)C(N)=O [Example 16, Tyr-cyclo(Cys-Phe-DTrp-Lys-Thr-NMeCys)-Thr-NH2] (H-YCF[dW]KT[NMeC]T-NH2; disulfide 2-7; N-terminus assumed)	–	321	1260	–	–
C[C@@H](O)[C@@H]1NC(=O)[C@H](CCCCN)NC(=O)[C@@H](Cc2c[nH]c3ccccc23)NC(=O)[C@H](Cc2ccccc2)NC(=O)[C@@H](NC(=O)[C@@H](N)Cc2ccc(O)cc2)CSSC[C@@H](C(=O)N(C)[C@H](C(N)=O)[C@@H](C)O)NC1=O [Example 17, Tyr-cyclo(Cys-Phe-DTrp-Lys-Thr-Cys)-NMeThr-NH2] (H-YCF[dW]KTC[NMeT]-NH2; disulfide 2-7; N-terminus assumed)	26.2 ± 10.3	353	611 ± 3.5	535 ± 200	–
C[C@@H](O)[C@H](NC(=O)[C@@H]1CSSC[C@H](NC(=O)[C@@H](N)Cc2ccc(O)cc2)C(=O)N[C@@H](Cc2ccccc2)C(=O)N[C@H](Cc2c[nH]c3ccccc23)C(=O)N[C@@H](CCCCN)C(=O)N[C@@H]([C@@H](C)O)C(=O)N1)C(N)=O [Example 18, Tyr-cyclo(Cys-Phe-DTrp-Lys-Thr-Cys)-Thr-NH2] (H-YCF[dW]KTCT-NH2; disulfide 2-7; N-terminus assumed)	10.3 ± 3.53	–	1000	18.2 ± 4.21	–
